Data on 23 molecules can be found in PubChem BioAssay AID330 (DTP/NCI, 2004).

Several values for one entry are separate records, joined by “and”; a condition that tells them apart may be missing. Equal entries are not always repeated. Toxic doses and inconclusive results are not listed.

This assay has as its system P388 leukemia ip, CD2F1 mice, survival T/C. In words: NCI In Vivo Anticancer Drug Screen. Data for tumor model P388 Leukemia (intraperitoneal) in CD2F1 (CDF1) mice. The note with it: endpoint: median survival time, higher = longer survival. In outline: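 Mice carrying the transplanted tumor received test compound or vehicle. Survival was recorded in each group, and the value is the treated-group measurement divided by that of the vehicle-treated control group.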

[1] abbreviates: dose: 60.0 mg/kg/injection, schedule: Q01DX005 (ip), vehicle: Klucel (hydroxypropylcellulose) (HPC).
The mark [2] stands for this setting: dose: 50.0 mg/kg/injection, schedule: Q01DX005 (ip), vehicle: saline with Tween-80.
The mark [3] stands for this setting: dose: 100.0 mg/kg/injection, schedule: Q01DX005 (ip), vehicle: saline with Tween-80.
The mark [4] stands for this setting: dose: 200.0 mg/kg/injection, schedule: Q01DX005 (ip), vehicle: saline with Tween-80.
The mark [5] stands for this setting: dose: 12.5 mg/kg/injection, schedule: Q01DX009 (ip), vehicle: other.
[6] abbreviates: dose: 25.0 mg/kg/injection, schedule: Q01DX009 (ip), vehicle: other.
Where [7] appears, read: dose: 50.0 mg/kg/injection, schedule: Q01DX009 (ip), vehicle: other.
Where [8] appears, read: dose: 100.0 mg/kg/injection, schedule: Q01DX009 (ip), vehicle: other.
Where [9] appears, read: dose: 200.0 mg/kg/injection, schedule: Q01DX009 (ip), vehicle: other.

In the case of `CCCOC(=O)c1ccc(NC(=O)Nc2ccc(C(=O)OCC)cc2)cc1`, the T/C runs as follows: under setting [1], 87 % of control; (dose: 120.0 mg/kg/injection, schedule: Q01DX005 (ip), vehicle: Klucel (hydroxypropylcellulose) (HPC)) 90 % of control; (dose: 240.0 mg/kg/injection, schedule: Q01DX005 (ip), vehicle: Klucel (hydroxypropylcellulose) (HPC)) 88 % of control.
Turning to `CC1(C)C2CC=C(CCOC(=S)S)C1C2.[Ni]` (stereo unspecified), under “dose: 25.0 mg/kg/injection, schedule: Q01DX009 (ip), vehicle: saline with Tween-80”, the T/C is 90 % of control.
For the molecule `O=C1c2c(Cl)c(Cl)c(Cl)c(Cl)c2C(=O)C2(Cl)CC=CCC12Cl` (stereo unspecified), the T/C was 101 % of control (dose: 6.25 mg/kg/injection, schedule: Q01DX005 (ip), vehicle: Klucel (hydroxypropylcellulose) (HPC)); 95 % of control (dose: 12.5 mg/kg/injection, schedule: Q01DX005 (ip), vehicle: Klucel (hydroxypropylcellulose) (HPC)); 101 % of control (dose: 25.0 mg/kg/injection, schedule: Q01DX005 (ip), vehicle: Klucel (hydroxypropylcellulose) (HPC)).
Turning to `CC(=O)c1nc(-c2ccccc2)oc1-c1ccccc1`, the T/C reads like this: (dose: 100.0 mg/kg/injection, schedule: Q04DX002 (ip), vehicle: saline) 96 % of control; (dose: 200.0 mg/kg/injection, schedule: Q04DX002 (ip), vehicle: saline) 95 % of control; (dose: 400.0 mg/kg/injection, schedule: Q04DX002 (ip), vehicle: saline) 99 % of control.
Regarding `CC1(C)CC(c2ccccc2)C(c2ccccc2)C(=O)O1` (stereo unspecified), the T/C reads like this: (dose: 100.0 mg/kg/injection, schedule: Q04DX003 (ip), vehicle: Klucel (hydroxypropylcellulose) (HPC)) 93 % of control; (dose: 200.0 mg/kg/injection, schedule: Q04DX003 (ip), vehicle: Klucel (hydroxypropylcellulose) (HPC)) 92 % of control.
For the molecule `O=C1CCC/C(c2ccccc2)=N\N=C/1c1ccccc1`, the T/C is, setting by setting: (dose: 50.0 mg/kg/injection, schedule: Q01DX005 (ip), vehicle: Klucel (hydroxypropylcellulose) (HPC)) 106 % of control; (dose: 100.0 mg/kg/injection, schedule: Q01DX005 (ip), vehicle: Klucel (hydroxypropylcellulose) (HPC)) 106 % of control; (dose: 200.0 mg/kg/injection, schedule: Q01DX005 (ip), vehicle: Klucel (hydroxypropylcellulose) (HPC)) 103 % of control.
On to `N#CN=[N+]([O-])c1cccc([N+](=O)[O-])c1`, for which the T/C is 106 % of control (dose: 6.25 mg/kg/injection, schedule: Q04DX003 (ip), vehicle: Klucel (hydroxypropylcellulose) (HPC)) and 89 % of control (dose: 12.5 mg/kg/injection, schedule: Q04DX003 (ip), vehicle: Klucel (hydroxypropylcellulose) (HPC)).
Turning to `Cc1ccccc1Nc1ccc([N+](=O)[O-])c2nonc12`, the T/C reads like this: under setting [2], 103 % of control; under setting [3], 98 % of control; under setting [4], 92 % of control.
For the molecule `CCC(c1ccc(OC)cc1)C(NC(=S)NCc1ccccc1)c1ccc(OC)cc1` (stereo unspecified), the T/C (dose: 100.0 mg/kg/injection, schedule: Q04DX002 (ip), vehicle: saline with Tween-80) was 94 % of control and the T/C (dose: 200.0 mg/kg/injection, schedule: Q04DX002 (ip), vehicle: saline with Tween-80) is 91 % of control.
Regarding `CO[C@H]1/C=C/O[C@@]2(C)Oc3c(C)c(O)c4c(O)c(c(/C=N/N5CCCN(Cc6ccccc6)CC5)c(O)c4c3C2=O)NC(=O)/C(C)=C\C=C\[C@H](C)[C@H](O)C(C)[C@@H](O)C(C)[C@H](OC(C)=O)[C@@H]1C` (stereo partly specified), the T/C (dose: 25.0 mg/kg/injection, schedule: Q01DX009 (ip), vehicle: suspension in saline) is 107 % of control.
In the case of `C=C1C(=O)C23C(OC(=O)CCCCCCCCC)C1CCC2C12COC3(O)C(O)C1C(C)(C)CCC2O` (stereo unspecified), the T/C by setting is: (dose: 3.75 mg/kg/injection, schedule: Q01DX009 (ip), vehicle: saline with Tween-80) 103 % of control; (dose: 7.5 mg/kg/injection, schedule: Q01DX009 (ip), vehicle: saline with Tween-80) 98 % of control; (dose: 15.0 mg/kg/injection, schedule: Q01DX009 (ip), vehicle: saline with Tween-80) 96 % of control; (dose: 30.0 mg/kg/injection, schedule: Q01DX009 (ip), vehicle: saline with Tween-80) 106 % of control.
For `O=C(NCC(O)CNC(=O)Nc1ccc(C2=NCC(O)CN2)cc1)Nc1ccc(C2=NCC(O)CN2)cc1` (stereo unspecified), the T/C (dose: 12.5 mg/kg/injection, schedule: Q01DX005 (ip), vehicle: saline with Tween-80) is 95 % of control; the T/C (dose: 25.0 mg/kg/injection, schedule: Q01DX005 (ip), vehicle: saline with Tween-80) was 100 % of control; the T/C under setting [2] was 109 % of control and 97 % of control.
For the molecule `C[C@H](N)[C@H](O)c1cccc(O)c1`, the T/C (dose: 1.5 mg/kg/injection, schedule: Q01DX005 (ip), vehicle: saline) is 103 % of control; the T/C (dose: 3.0 mg/kg/injection, schedule: Q01DX005 (ip), vehicle: saline) is 99 % of control; the T/C (dose: 6.0 mg/kg/injection, schedule: Q01DX005 (ip), vehicle: saline) was 110 % of control; the T/C (dose: 6.25 mg/kg/injection, schedule: Q01DX005 (ip), vehicle: saline) was 115 % of control; the T/C (dose: 25.0 mg/kg/injection, schedule: Q01DX005 (ip), vehicle: saline) is 100 % of control.
For `Cc1ccc(C(O)(CNC2CCCCC2)c2ccccc2)cc1` (stereo unspecified), the T/C is, setting by setting: (dose: 25.0 mg/kg/injection, schedule: Q01DX009 (ip), vehicle: saline sonified) 104 % of control; (dose: 50.0 mg/kg/injection, schedule: Q01DX009 (ip), vehicle: saline sonified) 104 % of control.
In the case of `COc1ccc(-c2c(N)cnc(C(=O)O)c2C)c(O)c1OC`, the T/C was 95 % of control under setting [5]; 104 % of control under setting [6]; 112 % of control under setting [7]; 95 % of control under setting [8]; 100 % of control under setting [9].
On to `CC1=C(/C=C/C(C)=C/C=C/C(C)=C/C=C2/CCOC2=O)C(C)(C)CCC1`, for which the T/C was 96 % of control (dose: 50.0 mg/kg/injection, schedule: Q01DX001 (ip), vehicle: saline with Tween-80); 96 % of control (dose: 100.0 mg/kg/injection, schedule: Q01DX001 (ip), vehicle: saline with Tween-80); 100 % of control (dose: 200.0 mg/kg/injection, schedule: Q01DX001 (ip), vehicle: saline with Tween-80).
With `CCC=Nc1c(O)cc(-c2ccccc2)n(C)c1=O`, the T/C is 94 % of control (dose: 60.0 mg/kg/injection, schedule: Q01DX005 (ip), vehicle: saline with Tween-80) and 100 % of control (dose: 120.0 mg/kg/injection, schedule: Q01DX005 (ip), vehicle: saline with Tween-80).
On to `CCC(=O)N1C(=O)C(C)C23c4ccccc4C(=O)N2CCCN13` (stereo unspecified), for which the T/C reads like this: under setting [2], 97 % of control; under setting [3], 96 % of control; under setting [4], 96 % of control.
Consider `CCN(CC)CCOC(=O)/C=C\c1cccc2c(=O)cc(-c3ccccc3)oc12`, for which the T/C runs as follows: (dose: 50.0 mg/kg/injection, schedule: Q01DX009 (ip), vehicle: saline) 100 % of control; (dose: 100.0 mg/kg/injection, schedule: Q01DX009 (ip), vehicle: saline) 101 % of control; (dose: 200.0 mg/kg/injection, schedule: Q01DX009 (ip), vehicle: saline) 117 % of control.
Consider `Cc1ccc(S(=O)(=O)NC(CNC(N)=O)C(=O)O)cc1` (stereo unspecified), for which the T/C was 107 % of control under setting [5]; 101 % of control under setting [6]; 100 % of control under setting [7]; 97 % of control under setting [8]; 96 % of control under setting [9].
With `C=C(C)C(=O)NC(N)=NC#N`, under setting [1], the T/C was 122 % of control.
Regarding `C=C1CC2(CC3(C(C)C)CC3C2C)OC1=O` (stereo unspecified), the T/C runs as follows: (dose: 100.0 mg/kg/injection, schedule: Q01DX001 (ip), vehicle: saline) 100 % of control; (dose: 200.0 mg/kg/injection, schedule: Q01DX001 (ip), vehicle: saline) 99 % of control; (dose: 400.0 mg/kg/injection, schedule: Q01DX001 (ip), vehicle: saline) 110 % of control.
Take `C=C1C(=O)OC2/C=C(\C)C(O)C/C=C(/C)C(OC(=O)/C(C)=C\C)C(O)C12` (stereo unspecified): the T/C is, setting by setting: (dose: 6125.0 micrograms/kg/injection, schedule: Q01DX005 (ip), vehicle: Klucel (hydroxypropylcellulose) (HPC)) 110 % of control; (dose: 12250.0 micrograms/kg/injection, schedule: Q01DX005 (ip), vehicle: Klucel (hydroxypropylcellulose) (HPC)) 115 % of control; (dose: 24500.0 micrograms/kg/injection, schedule: Q01DX005 (ip), vehicle: Klucel (hydroxypropylcellulose) (HPC)) 109 % of control; (dose: 49000.0 micrograms/kg/injection, schedule: Q01DX005 (ip), vehicle: Klucel (hydroxypropylcellulose) (HPC)) 114 % of control.
